Data published in US20050282743A1, “Molecular interactions in cells” (Arbor Vita Corporation, priority 2001, published 2005).
Peptide text beside a SMILES is read from it. * marks the point of attachment. Biotin = O=C1N[C@H]2[C@H](CS[C@H]2CCCCC(=O)*)N1

Assays:
Assay in all cases: G' assay (10 uM PL peptide), results of TABLE 7 and TABLE 12
Assay type in all cases: binding
[1] = biological target: T1, PDZ protein (GST-PDZ fusion) (Homo sapiens, UniProt Q12923); conditions: PDZ PTPL-1, PDZ Domain 2
T1 construct: made in house; host or cells: E. coli (DH5alpha, BL21 or JM109)
In short: (§1)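 Same steps as the G-zero format, apart from a peptide concentration of 10 uM in place of 20 uM in step 2. Amino-terminally biotinylated PL peptides bind GST-PDZ fusions, and retained peptide is quantified by 450 nm absorbance.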

[2] = biological target: T2, PDZ protein (GST-PDZ fusion) (Homo sapiens, UniProt Q14160)
T2 construct: made in house; host or cells: E. coli (DH5alpha, BL21 or JM109)
In short: as §1

[3] = biological target: T3, PDZ protein (GST-PDZ fusion) (Homo sapiens, UniProt Q5TCQ9)
T3 construct: made in house; host or cells: E. coli (DH5alpha, BL21 or JM109)
T3 sequence (Q5TCQ9 1-1481): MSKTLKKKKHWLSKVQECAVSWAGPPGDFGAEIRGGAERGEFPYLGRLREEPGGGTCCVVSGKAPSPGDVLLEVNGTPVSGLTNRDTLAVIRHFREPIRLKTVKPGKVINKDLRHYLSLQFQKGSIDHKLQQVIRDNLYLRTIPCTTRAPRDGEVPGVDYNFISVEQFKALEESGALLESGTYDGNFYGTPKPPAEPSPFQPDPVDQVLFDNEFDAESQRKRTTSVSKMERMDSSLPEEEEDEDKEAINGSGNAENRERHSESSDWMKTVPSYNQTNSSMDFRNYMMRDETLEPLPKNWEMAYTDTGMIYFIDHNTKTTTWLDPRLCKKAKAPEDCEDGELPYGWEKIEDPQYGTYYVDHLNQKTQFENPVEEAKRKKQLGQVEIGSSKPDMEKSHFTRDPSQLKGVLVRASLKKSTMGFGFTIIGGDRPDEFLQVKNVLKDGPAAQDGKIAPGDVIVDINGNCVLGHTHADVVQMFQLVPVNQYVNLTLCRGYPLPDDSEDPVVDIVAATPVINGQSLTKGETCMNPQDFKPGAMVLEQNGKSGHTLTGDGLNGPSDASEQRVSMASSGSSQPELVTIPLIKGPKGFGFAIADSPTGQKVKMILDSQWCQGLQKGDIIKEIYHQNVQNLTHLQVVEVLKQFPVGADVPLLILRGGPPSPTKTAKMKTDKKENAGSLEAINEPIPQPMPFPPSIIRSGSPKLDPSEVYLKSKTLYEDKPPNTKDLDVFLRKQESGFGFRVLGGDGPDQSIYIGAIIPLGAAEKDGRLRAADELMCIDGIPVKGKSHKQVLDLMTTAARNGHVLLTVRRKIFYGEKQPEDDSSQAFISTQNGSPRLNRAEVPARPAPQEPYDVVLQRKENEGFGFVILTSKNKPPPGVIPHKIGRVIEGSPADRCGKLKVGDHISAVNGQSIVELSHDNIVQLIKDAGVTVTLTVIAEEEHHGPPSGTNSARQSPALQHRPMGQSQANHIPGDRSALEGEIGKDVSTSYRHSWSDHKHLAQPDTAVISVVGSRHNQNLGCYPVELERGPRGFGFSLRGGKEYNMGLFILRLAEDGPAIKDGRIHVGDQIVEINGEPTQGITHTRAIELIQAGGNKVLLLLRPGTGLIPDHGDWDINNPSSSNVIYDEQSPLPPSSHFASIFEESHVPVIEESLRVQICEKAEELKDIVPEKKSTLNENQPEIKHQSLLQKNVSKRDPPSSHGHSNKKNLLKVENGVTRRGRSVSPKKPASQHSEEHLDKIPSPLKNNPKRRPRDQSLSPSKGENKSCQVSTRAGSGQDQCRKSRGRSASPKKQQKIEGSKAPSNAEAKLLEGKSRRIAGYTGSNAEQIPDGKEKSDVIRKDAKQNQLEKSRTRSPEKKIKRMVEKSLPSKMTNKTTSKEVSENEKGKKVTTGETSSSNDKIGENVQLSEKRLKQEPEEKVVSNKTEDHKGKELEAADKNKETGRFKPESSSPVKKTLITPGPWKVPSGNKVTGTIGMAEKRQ
In short: as §1

[4] = biological target: T4, PDZ protein (GST-PDZ fusion) (Homo sapiens, UniProt Q6P0Q8)
T4 construct: made in house; host or cells: E. coli (DH5alpha, BL21 or JM109)
In short: as §1

[5] = biological target: T5, PDZ protein (GST-PDZ fusion) (Homo sapiens, UniProt Q8NI35); conditions: PDZ INADL
T5 construct: made in house; host or cells: E. coli (DH5alpha, BL21 or JM109)
In short: as §1

[6] = biological target: T6, PDZ protein (GST-PDZ fusion) (Homo sapiens, UniProt P78352); conditions: PDZ PSD95, PDZ Domain 1, 2, 3
T6 construct: made in house; host or cells: E. coli (DH5alpha, BL21 or JM109)
In short: as §1

[7] = PDZ KIAA807, PDZ Domain not given

T2 sequence (Q14160 whole entry, the tested form may be a part): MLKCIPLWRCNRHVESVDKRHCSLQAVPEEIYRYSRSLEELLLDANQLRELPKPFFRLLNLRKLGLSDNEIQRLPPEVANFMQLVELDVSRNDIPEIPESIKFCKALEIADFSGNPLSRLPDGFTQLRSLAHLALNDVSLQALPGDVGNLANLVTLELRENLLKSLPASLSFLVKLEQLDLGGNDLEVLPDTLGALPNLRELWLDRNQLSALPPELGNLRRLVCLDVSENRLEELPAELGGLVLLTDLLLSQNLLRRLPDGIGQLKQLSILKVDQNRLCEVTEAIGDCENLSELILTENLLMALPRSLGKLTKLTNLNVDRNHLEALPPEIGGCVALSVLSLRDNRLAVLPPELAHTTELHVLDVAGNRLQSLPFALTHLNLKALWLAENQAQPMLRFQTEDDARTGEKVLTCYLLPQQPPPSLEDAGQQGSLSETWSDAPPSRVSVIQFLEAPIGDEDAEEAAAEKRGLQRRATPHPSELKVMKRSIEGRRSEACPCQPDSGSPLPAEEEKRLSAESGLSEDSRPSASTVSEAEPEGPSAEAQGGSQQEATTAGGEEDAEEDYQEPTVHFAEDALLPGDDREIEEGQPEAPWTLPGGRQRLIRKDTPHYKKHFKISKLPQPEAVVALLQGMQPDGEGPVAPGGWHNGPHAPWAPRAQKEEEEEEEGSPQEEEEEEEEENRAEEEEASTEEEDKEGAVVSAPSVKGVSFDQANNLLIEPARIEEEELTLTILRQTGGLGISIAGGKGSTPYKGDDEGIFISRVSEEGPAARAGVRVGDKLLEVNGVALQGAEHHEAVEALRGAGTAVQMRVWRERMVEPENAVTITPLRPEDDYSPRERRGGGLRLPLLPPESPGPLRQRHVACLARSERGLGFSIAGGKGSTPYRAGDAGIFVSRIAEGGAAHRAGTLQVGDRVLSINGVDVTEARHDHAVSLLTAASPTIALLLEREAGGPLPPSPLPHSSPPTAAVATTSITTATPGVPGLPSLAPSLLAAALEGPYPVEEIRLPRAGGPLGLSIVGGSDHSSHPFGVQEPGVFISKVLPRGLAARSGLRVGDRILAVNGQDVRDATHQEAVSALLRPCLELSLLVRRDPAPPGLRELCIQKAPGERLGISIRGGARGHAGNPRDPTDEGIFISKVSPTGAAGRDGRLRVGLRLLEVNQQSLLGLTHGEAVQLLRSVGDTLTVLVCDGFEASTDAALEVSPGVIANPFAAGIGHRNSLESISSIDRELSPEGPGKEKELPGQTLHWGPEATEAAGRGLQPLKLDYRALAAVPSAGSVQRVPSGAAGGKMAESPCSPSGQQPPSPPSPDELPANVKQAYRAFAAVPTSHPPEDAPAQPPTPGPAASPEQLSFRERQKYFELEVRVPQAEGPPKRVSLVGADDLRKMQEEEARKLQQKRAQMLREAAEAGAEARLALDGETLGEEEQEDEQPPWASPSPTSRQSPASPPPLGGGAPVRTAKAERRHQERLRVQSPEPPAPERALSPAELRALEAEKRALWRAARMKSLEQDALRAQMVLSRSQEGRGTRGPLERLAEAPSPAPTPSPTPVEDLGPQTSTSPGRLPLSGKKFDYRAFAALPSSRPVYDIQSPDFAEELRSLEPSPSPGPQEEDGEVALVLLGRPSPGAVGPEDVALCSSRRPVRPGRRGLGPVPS
T4 sequence (Q6P0Q8 whole entry, the tested form may be a part): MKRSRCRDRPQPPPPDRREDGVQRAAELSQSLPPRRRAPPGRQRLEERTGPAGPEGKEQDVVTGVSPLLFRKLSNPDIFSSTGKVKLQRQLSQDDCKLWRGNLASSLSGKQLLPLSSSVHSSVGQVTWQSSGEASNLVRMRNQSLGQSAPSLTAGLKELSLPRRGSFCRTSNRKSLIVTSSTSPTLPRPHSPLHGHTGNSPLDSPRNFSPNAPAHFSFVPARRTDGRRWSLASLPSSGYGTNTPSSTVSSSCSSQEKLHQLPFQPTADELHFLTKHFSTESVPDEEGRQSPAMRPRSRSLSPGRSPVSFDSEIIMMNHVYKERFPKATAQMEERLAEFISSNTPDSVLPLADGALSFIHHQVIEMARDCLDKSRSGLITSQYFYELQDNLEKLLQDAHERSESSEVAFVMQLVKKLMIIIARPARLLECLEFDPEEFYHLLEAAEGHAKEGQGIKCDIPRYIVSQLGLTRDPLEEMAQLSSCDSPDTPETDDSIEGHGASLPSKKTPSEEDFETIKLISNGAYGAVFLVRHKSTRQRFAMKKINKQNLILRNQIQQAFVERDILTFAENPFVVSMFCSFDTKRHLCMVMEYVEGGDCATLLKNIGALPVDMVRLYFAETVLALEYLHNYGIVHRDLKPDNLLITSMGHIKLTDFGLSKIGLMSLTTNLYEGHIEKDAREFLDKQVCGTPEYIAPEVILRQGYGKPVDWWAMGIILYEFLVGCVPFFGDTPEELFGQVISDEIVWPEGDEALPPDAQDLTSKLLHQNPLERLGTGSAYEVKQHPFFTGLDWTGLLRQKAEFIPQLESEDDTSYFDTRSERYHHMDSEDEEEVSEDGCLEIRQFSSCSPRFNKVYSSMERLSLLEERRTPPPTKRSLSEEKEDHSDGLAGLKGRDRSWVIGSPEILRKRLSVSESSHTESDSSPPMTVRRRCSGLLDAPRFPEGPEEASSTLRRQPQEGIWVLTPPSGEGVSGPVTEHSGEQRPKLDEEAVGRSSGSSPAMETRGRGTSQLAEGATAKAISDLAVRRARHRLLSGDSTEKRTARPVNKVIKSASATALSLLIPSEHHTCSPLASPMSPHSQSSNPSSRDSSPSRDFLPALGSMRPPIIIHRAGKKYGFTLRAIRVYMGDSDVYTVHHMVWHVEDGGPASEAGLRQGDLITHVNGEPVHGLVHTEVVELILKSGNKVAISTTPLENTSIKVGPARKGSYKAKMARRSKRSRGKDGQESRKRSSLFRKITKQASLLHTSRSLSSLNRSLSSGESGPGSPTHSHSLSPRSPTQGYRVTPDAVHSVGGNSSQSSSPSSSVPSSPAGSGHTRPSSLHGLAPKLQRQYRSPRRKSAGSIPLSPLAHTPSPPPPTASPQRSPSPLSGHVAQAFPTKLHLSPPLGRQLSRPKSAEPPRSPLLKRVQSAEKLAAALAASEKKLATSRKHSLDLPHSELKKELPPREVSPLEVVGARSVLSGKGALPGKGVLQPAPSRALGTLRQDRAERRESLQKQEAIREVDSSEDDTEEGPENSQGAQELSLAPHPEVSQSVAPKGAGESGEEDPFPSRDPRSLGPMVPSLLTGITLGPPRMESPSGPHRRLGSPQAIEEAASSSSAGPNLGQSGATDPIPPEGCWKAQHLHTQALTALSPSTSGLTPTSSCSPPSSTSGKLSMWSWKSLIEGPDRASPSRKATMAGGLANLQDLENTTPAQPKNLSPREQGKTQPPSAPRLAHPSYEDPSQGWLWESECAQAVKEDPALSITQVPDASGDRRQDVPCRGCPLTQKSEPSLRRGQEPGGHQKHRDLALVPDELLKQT
T6 sequence (P78352 whole entry, the tested form may be a part): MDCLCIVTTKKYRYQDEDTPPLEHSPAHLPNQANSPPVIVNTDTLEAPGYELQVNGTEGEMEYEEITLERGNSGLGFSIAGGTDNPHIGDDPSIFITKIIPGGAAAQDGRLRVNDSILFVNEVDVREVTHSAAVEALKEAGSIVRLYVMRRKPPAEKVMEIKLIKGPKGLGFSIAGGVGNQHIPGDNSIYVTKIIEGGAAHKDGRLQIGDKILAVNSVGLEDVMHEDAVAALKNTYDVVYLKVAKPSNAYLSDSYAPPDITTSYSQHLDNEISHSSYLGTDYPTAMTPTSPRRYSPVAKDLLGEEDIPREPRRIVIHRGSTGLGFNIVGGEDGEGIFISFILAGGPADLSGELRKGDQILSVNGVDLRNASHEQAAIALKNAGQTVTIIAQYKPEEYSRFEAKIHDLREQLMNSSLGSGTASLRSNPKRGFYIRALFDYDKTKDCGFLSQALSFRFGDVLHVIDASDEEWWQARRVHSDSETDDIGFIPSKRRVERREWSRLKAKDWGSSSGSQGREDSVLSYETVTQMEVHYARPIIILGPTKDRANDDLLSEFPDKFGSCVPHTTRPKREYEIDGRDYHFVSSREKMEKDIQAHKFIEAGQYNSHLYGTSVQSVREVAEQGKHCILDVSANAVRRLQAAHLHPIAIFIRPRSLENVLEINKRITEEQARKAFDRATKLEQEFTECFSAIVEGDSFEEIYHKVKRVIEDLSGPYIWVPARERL

Row | Classification ([2]; PDZ KIAA0147, PDZ Domain 1) | Classification ([2]; PDZ KIAA0147, PDZ Domain 3) | Classification ([3]; PDZ KIAA1634, PDZ Domain 5) | Classification ([4]; PDZ KIAA0807(S), PDZ Domain 1) | Classification [4, 7] | Classification ([5]; PDZ Domain 3) | Classification [6] | Classification ([3]; PDZ KIAA1634, PDZ Domain 1) | Classification ([3]; PDZ KIAA1634, PDZ Domain 2) | Classification ([5]; PDZ Domain 5) | Compound | Classification [1] | Classification ([4]; PDZ KIAA807)
1 | 2 (A450 nm 1-2) | 3 (A450 nm 2-3) | 5 (A450 nm of 4 more than 2× repeated) | 5 (A450 nm of 4 more than 2× repeated) | 5 (A450 nm of 4 more than 2× repeated) | 1 (A450 nm 0-1) | – | – | – | – | CC(C)C[C@H](NC(=O)[C@H](CC(=O)O)NC(=O)[C@H](CO)NC(=O)[C@H](CCC(=O)O)NC(=O)CNC(=O)[C@H](Cc1ccc(O)cc1)NC(=O)[C@H](CC(C)C)NC(=O)[C@H](C)NC(=O)[C@H](CO)NC(=O)[C@H](CO)NC(=O)[C@H](Cc1ccccc1)NC(=O)[C@H](C)NC(=O)[C@H](C)NC(=O)[C@H](Cc1ccc(O)cc1)NC(=O)[C@H](CC(=O)O)NC(=O)[C@H](CC(C)C)NC(=O)[C@H](C)NC(=O)CNC(=O)[C@@H]1CCCN1C(=O)[C@@H](NC(=O)CCCC[C@@H]1SC[C@@H]2NC(=O)N[C@@H]21)C(C)C)C(=O)O [a-actinin 2] (Biotin-VPGALDYAAFSSALYGESDL-OH; C-terminus assumed) | 1 (A450 nm 0-1) | –
2 | 1 (A450 nm 0-1) | – | – | 1 (A450 nm 0-1) | – | – | 2 (A450 nm 1-2) | 4 (A450 nm 3-4) | – | – | GGGGGSGGGGGSGIESVKI [GLUR2 (glutamate receptor 2-modified)] | – | –
3 | 2 (A450 nm 1-2) | – | 1 (A450 nm 0-1) | 5 (A450 nm of 4 more than 2× repeated) | 5 (A450 nm of 4 more than 2× repeated) | – | – | 2 (A450 nm 1-2) | 1 (A450 nm 0-1) | 1 (A450 nm 0-1) | CC[C@H](C)[C@H](NC(=O)CNC(=O)[C@H](CO)NC(=O)[C@H](Cc1ccccc1)NC(=O)[C@@H](NC(=O)[C@H](CS)NC(=O)CNC(=O)CNC(=O)[C@H](C)NC(=O)[C@@H]1CCCN1C(=O)[C@@H](NC(=O)[C@@H]1CCCN1C(=O)CCCC[C@@H]1SC[C@@H]2NC(=O)N[C@@H]21)[C@@H](C)CC)[C@@H](C)O)C(=O)N[C@@H](Cc1ccccc1)C(=O)N1CCC[C@H]1C(=O)N[C@H](C(=O)N[C@@H](CC(C)C)C(=O)N[C@H](C(=O)N[C@@H](CO)C(=O)N1CCC[C@H]1C(=O)N[C@@H](CC(C)C)C(=O)O)[C@@H](C)O)[C@@H](C)O [KIA 1481] (Biotin-PIPAGGCTFSGIFPTLTSPL-OH; C-terminus assumed) | – | –

Row | Compound | Classification ([2]; PDZ KIAA0147, PDZ Domain 1) | Classification ([2]; PDZ KIAA0147, PDZ Domain 3) | Classification ([3]; PDZ KIAA1634, PDZ Domain 5) | Classification ([4]; PDZ KIAA0807(S), PDZ Domain 1) | Classification [4, 7] | Classification ([5]; PDZ Domain 3) | Classification [6] | Classification ([3]; PDZ KIAA1634, PDZ Domain 1) | Classification ([3]; PDZ KIAA1634, PDZ Domain 2) | Classification ([5]; PDZ Domain 5) | Classification [1] | Classification ([4]; PDZ KIAA807)
4 | CC(C)C[C@H](NC(=O)[C@H](C)NC(=O)[C@@H](NC(=O)[C@@H](NC(=O)[C@H](Cc1c[nH]cn1)NC(=O)[C@H](CC(C)C)NC(=O)CNC(=O)[C@H](CCC(N)=O)NC(=O)CNC(=O)CNC(=O)[C@H](C)NC(=O)[C@H](C)NC(=O)[C@H](CCCNC(=N)N)NC(=O)[C@H](C)NC(=O)[C@H](CO)NC(=O)[C@H](CC(=O)O)NC(=O)[C@H](CC(=O)O)NC(=O)[C@H](Cc1c[nH]c2ccccc12)NC(=O)[C@H](C)NC(=O)CCCC[C@@H]1SC[C@@H]2NC(=O)N[C@@H]21)C(C)C)[C@@H](C)O)C(=O)O [LPAP] (Biotin-AWDDSARAAGGQGLHVTAL-OH; C-terminus assumed) | 3 (A450 nm 2-3) | – | – | – | – | – | – | – | – | – | 1 (A450 nm 0-1) | 5 (A450 nm of 4 more than 2× repeated)
